Each structure is given as a SMILES string. Where only a bound is given, the exact number is not on record here.

One assay addresses T1, PDE1A3 (Homo sapiens, UniProt P54750).
T1 construct: cDNA of full length PDEs, specifically, PDE1A3; made in house; host or cells: Sf9 insect cells (baculovirus)
Briefly: Inhibition of recombinant human PDE1A3 by ibudilast. The format is biochemical.

For a further assay, the target named is T2, PDE2A3 (Homo sapiens, UniProt O00408).
T2 construct: cDNA of full length PDEs, specifically, PDE1A3, PDE2A3; made in house; host or cells: Sf9 insect cells (baculovirus)
T2 sequence (O00408 whole entry): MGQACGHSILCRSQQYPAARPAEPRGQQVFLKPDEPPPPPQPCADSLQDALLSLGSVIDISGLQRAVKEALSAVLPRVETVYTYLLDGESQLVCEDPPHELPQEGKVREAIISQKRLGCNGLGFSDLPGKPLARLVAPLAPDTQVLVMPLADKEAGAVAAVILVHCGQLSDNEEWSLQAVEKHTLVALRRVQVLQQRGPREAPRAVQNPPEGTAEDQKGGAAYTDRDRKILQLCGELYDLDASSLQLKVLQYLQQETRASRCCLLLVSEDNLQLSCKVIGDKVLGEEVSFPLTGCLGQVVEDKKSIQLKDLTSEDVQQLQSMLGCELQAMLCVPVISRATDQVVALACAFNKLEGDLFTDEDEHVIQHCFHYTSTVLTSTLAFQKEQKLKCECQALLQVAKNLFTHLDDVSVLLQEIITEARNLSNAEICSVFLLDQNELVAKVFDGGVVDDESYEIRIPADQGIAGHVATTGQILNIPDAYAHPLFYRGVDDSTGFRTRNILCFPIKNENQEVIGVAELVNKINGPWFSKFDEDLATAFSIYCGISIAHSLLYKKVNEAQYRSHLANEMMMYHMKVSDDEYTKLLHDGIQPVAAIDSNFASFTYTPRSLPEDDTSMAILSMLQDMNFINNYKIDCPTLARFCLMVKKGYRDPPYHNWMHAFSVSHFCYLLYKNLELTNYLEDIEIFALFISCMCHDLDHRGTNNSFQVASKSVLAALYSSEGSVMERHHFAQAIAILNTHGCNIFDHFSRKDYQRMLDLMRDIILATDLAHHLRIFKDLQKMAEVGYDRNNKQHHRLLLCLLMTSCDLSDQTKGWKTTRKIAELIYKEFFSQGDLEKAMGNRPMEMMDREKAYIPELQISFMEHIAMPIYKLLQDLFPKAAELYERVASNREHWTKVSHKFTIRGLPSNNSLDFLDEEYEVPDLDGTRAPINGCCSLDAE
The assay is described as follows: Inhibition of recombinant human PDE2A3 by ibudilast. Particulars: PDE 2A3, substrate cAMP 2 μM. It is filed as biochemical.

For the next assay, the target named is T3, PDE3B (Homo sapiens, UniProt Q13370).
T3 construct: cDNA of full length PDEs, specifically, PDE1A3, PDE2A3, PDE3A, PDE3B; made in house; host or cells: Sf9 insect cells (baculovirus); unpurified cell suspension in RIPA buffer
The assay is described as follows: Inhibition of recombinant human PDE3B by ibudilast (Sf9 cell suspension). The following applies: PDE 3B, substrate cAMP 2 μM. It is filed as biochemical.

A further assay addresses PDE4A4 (Homo sapiens, UniProt P27815). Briefly: Inhibition of recombinant human PDE4A4 by ibudilast. The following applies: PDE 4A4, substrate cAMP 2 μM. The format is biochemical.
For a further assay, the target named is T4, PDE4C2 (Homo sapiens, UniProt Q08493).
T4 construct: cDNA of full length PDEs, specifically, PDE1A3, PDE2A3, PDE3A, PDE3B, PDE4A4, PDE4B2, PDE4C2; made in house; host or cells: Sf9 insect cells (baculovirus)
T4 sequence (Q08493 107-712): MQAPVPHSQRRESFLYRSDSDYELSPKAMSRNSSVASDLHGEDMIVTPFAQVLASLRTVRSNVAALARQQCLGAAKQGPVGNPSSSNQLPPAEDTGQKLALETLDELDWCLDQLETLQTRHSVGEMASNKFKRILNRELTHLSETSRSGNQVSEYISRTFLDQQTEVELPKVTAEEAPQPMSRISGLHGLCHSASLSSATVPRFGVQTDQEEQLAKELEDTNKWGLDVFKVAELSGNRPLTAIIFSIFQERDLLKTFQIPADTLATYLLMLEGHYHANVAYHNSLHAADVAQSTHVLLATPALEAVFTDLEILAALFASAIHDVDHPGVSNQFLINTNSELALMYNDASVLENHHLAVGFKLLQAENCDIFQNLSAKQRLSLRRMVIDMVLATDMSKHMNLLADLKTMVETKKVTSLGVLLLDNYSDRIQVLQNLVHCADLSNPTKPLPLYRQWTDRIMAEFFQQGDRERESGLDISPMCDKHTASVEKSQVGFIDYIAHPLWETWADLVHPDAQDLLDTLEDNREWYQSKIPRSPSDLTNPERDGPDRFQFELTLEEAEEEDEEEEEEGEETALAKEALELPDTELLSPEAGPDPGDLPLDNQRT
The assay is described as follows: Inhibition of recombinant human PDE4C2 by ibudilast. It is filed as biochemical. Particulars: PDE 4C2, substrate cAMP 2 μM.

The target of a further assay is T5, PDE4D3 (Homo sapiens, UniProt Q08499).
T5 construct: cDNA of full length PDEs, specifically, PDE1A3, PDE2A3, PDE3A, PDE3B, PDE4A4, PDE4B2, PDE4C2, PDE4D3; made in house; host or cells: Sf9 insect cells (baculovirus)
T5 sequence (Q08499 1-673 isoform Q08499-2): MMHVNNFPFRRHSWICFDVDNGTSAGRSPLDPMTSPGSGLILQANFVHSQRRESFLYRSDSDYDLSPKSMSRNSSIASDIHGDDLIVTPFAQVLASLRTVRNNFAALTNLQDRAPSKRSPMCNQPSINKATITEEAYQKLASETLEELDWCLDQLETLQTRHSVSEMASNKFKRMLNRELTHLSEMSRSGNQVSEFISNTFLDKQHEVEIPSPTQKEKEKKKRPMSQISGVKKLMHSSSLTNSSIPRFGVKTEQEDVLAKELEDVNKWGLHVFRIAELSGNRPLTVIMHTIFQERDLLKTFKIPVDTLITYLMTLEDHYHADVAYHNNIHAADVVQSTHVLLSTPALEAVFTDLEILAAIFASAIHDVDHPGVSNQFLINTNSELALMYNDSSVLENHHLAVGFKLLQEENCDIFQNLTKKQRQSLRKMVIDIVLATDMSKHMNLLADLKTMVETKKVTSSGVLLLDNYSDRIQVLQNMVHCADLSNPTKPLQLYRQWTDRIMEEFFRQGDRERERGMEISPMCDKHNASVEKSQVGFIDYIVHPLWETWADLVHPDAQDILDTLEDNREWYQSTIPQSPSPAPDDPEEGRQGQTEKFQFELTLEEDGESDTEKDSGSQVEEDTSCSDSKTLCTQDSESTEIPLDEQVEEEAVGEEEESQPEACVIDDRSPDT
Briefly: Inhibition of recombinant human PDE4D3 by ibudilast. The format is biochemical. Particulars: PDE 4D3, substrate cAMP 2 μM.

In a further assay the target is T6, PDE7A2 (Homo sapiens, UniProt Q13946).
T6 construct: cDNA of full length PDEs, specifically, PDE1A3, PDE2A3, PDE3A, PDE3B, PDE4A4, PDE4B2, PDE4C2, PDE4D3, PDE5A1, PDE5A2, PDE5A3, PDE7A2; made in house; host or cells: Sf9 insect cells (baculovirus)
Briefly: Inhibition of recombinant human PDE7A2 by ibudilast. The format is biochemical. The following applies: PDE 7A2, substrate cAMP 0.2 μM.

In a further assay the target is T7, PDE8A1 (Homo sapiens, UniProt O60658).
T7 construct: cDNA of full length PDEs, specifically, PDE1A3, PDE2A3, PDE3A, PDE3B, PDE4A4, PDE4B2, PDE4C2, PDE4D3, PDE5A1, PDE5A2, PDE5A3, PDE7A2, PDE8A1; made in house; host or cells: Sf9 insect cells (baculovirus)
The assay is described as follows: Inhibition of recombinant human PDE8A1 by ibudilast. It is filed as biochemical. Particulars: PDE 8A1, substrate cAMP 0.2 μM.

For the next assay, the target named is T8, PDE9A2 (Homo sapiens, UniProt O76083).
T8 construct: cDNA of full length PDEs, specifically, PDE1A3, PDE2A3, PDE3A, PDE3B, PDE4A4, PDE4B2, PDE4C2, PDE4D3, PDE5A1, PDE5A2, PDE5A3, PDE7A2, PDE8A1, PDE9A2; made in house; host or cells: Sf9 insect cells (baculovirus)
The assay is described as follows: Inhibition of recombinant human PDE9A2 by ibudilast. The format is biochemical. Particulars: PDE 9A2, substrate cGMP 0.2 μM.

In another assay the target is T9, PDE10A1 (Homo sapiens, UniProt Q9Y233).
T9 construct: cDNA of full length PDEs, specifically, PDE1A3, PDE2A3, PDE3A, PDE3B, PDE4A4, PDE4B2, PDE4C2, PDE4D3, PDE5A1, PDE5A2, PDE5A3, PDE7A2, PDE8A1, PDE9A2, PDE10A1; made in house; host or cells: Sf9 insect cells (baculovirus)
T9 sequence (Q9Y233 1-779 isoform Q9Y233-1): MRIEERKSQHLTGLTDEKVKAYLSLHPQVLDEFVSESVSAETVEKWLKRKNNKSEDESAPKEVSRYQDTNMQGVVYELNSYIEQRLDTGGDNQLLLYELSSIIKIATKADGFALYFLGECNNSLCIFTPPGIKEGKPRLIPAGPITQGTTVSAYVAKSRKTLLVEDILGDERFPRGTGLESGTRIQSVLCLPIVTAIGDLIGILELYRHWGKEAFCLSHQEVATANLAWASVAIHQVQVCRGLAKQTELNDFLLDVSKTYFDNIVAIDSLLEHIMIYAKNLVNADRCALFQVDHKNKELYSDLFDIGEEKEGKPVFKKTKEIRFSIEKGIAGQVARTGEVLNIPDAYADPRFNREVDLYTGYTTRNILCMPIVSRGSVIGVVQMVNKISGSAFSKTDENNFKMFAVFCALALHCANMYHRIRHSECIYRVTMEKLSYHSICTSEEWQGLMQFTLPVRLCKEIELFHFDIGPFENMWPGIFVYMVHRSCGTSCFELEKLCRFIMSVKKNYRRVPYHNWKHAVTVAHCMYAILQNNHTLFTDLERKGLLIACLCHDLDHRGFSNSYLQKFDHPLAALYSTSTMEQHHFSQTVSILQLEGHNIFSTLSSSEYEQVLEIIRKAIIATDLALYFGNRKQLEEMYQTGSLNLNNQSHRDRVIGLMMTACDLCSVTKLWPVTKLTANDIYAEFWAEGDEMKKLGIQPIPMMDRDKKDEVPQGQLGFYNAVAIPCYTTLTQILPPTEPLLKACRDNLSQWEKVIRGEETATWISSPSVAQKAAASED
The assay is described as follows: Inhibition of recombinant human PDE10A1 by ibudilast. It is filed as biochemical.

Another assay deals with T10, PDE11A1 (Homo sapiens, UniProt Q9HCR9).
T10 construct: cDNA of full length PDEs, specifically, PDE1A3, PDE2A3, PDE3A, PDE3B, PDE4A4, PDE4B2, PDE4C2, PDE4D3, PDE5A1, PDE5A2, PDE5A3, PDE7A2, PDE8A1, PDE9A2, PDE10A1, and PDE11A1; made in house; host or cells: Sf9 insect cells (baculovirus)
T10 sequence (Q9HCR9 445-933): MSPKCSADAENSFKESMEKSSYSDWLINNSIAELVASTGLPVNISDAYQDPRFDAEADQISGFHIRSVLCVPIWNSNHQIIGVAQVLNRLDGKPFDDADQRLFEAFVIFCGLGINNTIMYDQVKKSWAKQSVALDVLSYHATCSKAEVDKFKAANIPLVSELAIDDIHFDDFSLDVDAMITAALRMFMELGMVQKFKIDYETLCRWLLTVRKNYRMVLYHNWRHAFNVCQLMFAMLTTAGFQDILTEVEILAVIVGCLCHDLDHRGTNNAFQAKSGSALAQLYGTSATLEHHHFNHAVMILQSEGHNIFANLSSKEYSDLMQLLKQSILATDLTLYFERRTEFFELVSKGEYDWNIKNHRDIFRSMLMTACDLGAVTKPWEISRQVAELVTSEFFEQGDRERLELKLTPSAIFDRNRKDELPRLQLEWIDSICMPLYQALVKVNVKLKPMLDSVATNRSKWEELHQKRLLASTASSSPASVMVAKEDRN
Briefly: Inhibition of recombinant human PDE11A1 by ibudilast. It is filed as biochemical.

A further assay has as its target PDE10A (Homo sapiens, UniProt Q9Y233). The following applies: human PDE10A gene product; cited from earlier work.

T1 sequence (P54750 whole entry): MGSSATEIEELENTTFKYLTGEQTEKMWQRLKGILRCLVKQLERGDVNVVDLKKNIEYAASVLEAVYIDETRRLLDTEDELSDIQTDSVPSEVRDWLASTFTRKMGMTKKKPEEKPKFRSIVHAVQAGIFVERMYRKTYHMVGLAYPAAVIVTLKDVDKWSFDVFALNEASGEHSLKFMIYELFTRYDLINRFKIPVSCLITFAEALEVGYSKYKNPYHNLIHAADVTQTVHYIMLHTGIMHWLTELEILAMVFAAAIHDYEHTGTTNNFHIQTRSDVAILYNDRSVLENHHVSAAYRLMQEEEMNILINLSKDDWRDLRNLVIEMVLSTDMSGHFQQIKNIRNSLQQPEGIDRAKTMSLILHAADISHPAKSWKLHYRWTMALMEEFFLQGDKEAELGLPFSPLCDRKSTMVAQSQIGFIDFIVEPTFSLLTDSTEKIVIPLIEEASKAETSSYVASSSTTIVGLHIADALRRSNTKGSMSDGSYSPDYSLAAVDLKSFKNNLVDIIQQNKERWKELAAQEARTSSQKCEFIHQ
PDE10A, sequence (Q9Y233 whole entry): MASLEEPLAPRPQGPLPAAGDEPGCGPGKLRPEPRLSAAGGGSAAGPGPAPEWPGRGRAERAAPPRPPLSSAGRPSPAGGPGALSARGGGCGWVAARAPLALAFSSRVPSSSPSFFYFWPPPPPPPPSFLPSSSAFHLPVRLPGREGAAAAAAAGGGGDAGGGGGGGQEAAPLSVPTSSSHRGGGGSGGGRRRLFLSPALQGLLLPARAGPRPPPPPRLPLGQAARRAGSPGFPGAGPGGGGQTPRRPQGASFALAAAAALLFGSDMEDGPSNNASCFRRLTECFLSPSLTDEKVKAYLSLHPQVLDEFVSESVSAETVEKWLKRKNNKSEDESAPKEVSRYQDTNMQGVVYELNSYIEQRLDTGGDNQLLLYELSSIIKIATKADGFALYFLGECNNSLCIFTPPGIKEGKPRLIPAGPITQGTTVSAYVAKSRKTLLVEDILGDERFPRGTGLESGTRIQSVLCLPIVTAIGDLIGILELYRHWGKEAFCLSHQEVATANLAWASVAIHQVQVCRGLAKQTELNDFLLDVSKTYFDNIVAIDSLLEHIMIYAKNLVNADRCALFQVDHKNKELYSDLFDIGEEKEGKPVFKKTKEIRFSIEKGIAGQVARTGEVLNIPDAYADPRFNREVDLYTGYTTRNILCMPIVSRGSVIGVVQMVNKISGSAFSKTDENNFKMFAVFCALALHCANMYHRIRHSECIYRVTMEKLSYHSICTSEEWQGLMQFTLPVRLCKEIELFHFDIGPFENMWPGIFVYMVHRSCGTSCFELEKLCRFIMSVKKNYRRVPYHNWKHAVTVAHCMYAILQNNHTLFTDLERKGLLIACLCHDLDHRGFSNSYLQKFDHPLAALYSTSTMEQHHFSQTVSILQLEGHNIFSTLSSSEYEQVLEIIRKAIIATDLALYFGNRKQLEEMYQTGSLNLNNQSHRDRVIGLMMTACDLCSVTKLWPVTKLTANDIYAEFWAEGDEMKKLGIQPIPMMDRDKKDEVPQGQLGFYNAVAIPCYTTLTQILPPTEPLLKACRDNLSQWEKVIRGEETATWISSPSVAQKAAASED

`CC(C)C(=O)c1c(C(C)C)nn2ccccc12` [ibudilast, 3-isobutyryl-2-isopropyl pyrazolo[1,5-a]pyridine]: the IC50 (in general, the concentration that gives 50% inhibition) at PDE1A3 (PDE 1A3, substrate cAMP 2 μM) came out at 40 µM; on PDE1A3 (PDE 1A3, substrate cGMP 2 μM), 121 µM; at PDE2A3, 78 µM; at PDE3B, 266 µM; on PDE4A4, 6 µM; on PDE4C2 it was 11 µM. Further, the IC50 at PDE4D3 is 6 µM; at PDE7A2, 115 µM; at PDE8A1 it was 49 µM; on PDE9A2 it was over 400 µM; on PDE10A1 (PDE 10A1, substrate cAMP 0.2 μM), 3 µM; on PDE10A1 (PDE 10A1, substrate cGMP 2 μM), 1 µM. For the same compound, the IC50 stood at 17 µM at PDE11A1 (PDE 11A1, substrate cAMP 2 μM) and 36 µM at PDE11A1 (PDE 11A1, substrate cGMP 0.2 μM). The “inhibition of PDE10A1 compared with other PDEs” value on PDE10A1 (in vitro, recombinant human PDE) was “particularly strong inhibition”.
`OCCN(CCO)c1nc(N2CCCCC2)c2nc(N(CCO)CCO)nc(N3CCCCC3)c2n1` [dipyridamole]: on PDE10A, the “inhibition of PDE10A” value is reported as “inhibited”.

Values taken from US8404710B2, “Phosphodiesterase 10A inhibitor” (Kyorin Pharmaceutical Co., Ltd., priority 2002, dated 2013).
